Where “and” joins values, the source holds several entries; their conditions need not be identical. Equal entries are not always repeated.
What was measured:
[1] = test system: high lipid mode white rats; experiment: Prophylactic blood lipid lowering in high lipid feed white rats (Example 2); type: in vivo, Wistar male white rats
From the text: High lipid feed formula: cholesterol 3%, lard 10%, sodium cholate 0.5%, basal feed: […] (formula: flour 17.14%, rice flour 8.57%, maize […], bran 21%, fish flour 1.71%, dairy salt 0.857%, vitamin 0.085%, bean material 17.14%).
60 Wistar White male rats of 150±10 g of body weight were fed with common standard feed for 5 days, and then divided into 6 groups randomly. Each group included 10 rats. Group I was a blank group, where the rats were fed with common standard feed. Group II was a high lipid feed mode control group. Group III was a Simvastatin 10 mg/kg group. Group IV was a GB-O group. Group V was a GB-H group. Group VI was a GB-K group. High lipid feed mode control group were fed with high lipid feed together with distilled water. Groups III, IV, V, and VI were fed with high lipid feed together with required simvastatin, GB-O, GB-H, and GB-K suspensions (formulated by grinding with 0.5% sodium […] CMC-Na) respectively. The dosing amount was 0.046 mmol/kg, and the amount of high lipid feed was 20 g per day for each rat. The grouping and the dosing amount for each group can be found in table 1.
(§1) The body weights of white rats were determined and recorded every day. The rats in each group were dosed basing on its body weight by feeding for 14 days at 22° C. of room temperature and 40-50% of relative humidity. On the 14th day, after fasting and freely receiving water for 16 hours, its blood was sampled from aorta, placed for 30 min to blood coagulate, and centrifugated for 15 min at 3000 r/min to separate serum. The values of serum total cholesterol (TC), and triglyceride (TG) were determined on an automatic analyzer using enzymatic colorimetry, the value of high density lipoprotein cholesterol (HDL) was determined using a phosphotungstic acid-Mg precipitation method, and the value of low density lipoprotein cholesterol (LDL) was determined using the polyvinyl sulfate precipitation method.
All data were treated statistically, and were presented as means±standard deviations (x±s). The significance of difference was judged by T test. The calculation of p value was obtained by comparing the high lipid mode group with the blank control group, and comparing other test drug groups with the high lipid mode group.
The reaction temperature was 37° C. The cholesterol ester in serum was first hydrolyzed into free cholesterol (FC) and fatty acid with cholesterol ester hydrolase (CEH). Then, all FC in serum was oxidized into ch-4-en-3-one and H2O2 with cholesterol oxidase (COD). The resulting H2O2 was reacted with 4-aminoantipyrine (4-AAP) and 4-chlorophenol in the presence of peroxidase (POD) (Trinder reaction), to yield red quinine imine, which was calorimetrically tested at a 500 nm wavelength.
The reaction temperature was 37° C. The triglyceride ire serum was first hydrolyzed into glycerol and fatty acid with lipoprotein lipase (LPL). The resulting glycerol was reacted with ATP in the presence of glycerol kinase (GK), to produce glycerol-3-phosphate and ADP. The resulting glycerol-3-phosphate was oxidized into dihydroxyacetone phosphate and H2O2 with oxygen in the presence of glycerol phosphate oxidase (GPO). The resulting H2O2 was reacted with 4-aminoantipyrine (4-AAP) and 4-chlorophenol in the presence of peroxidase (POD) (Trinder reaction), to yield red quinine imine, which was colorimetrically determined at a 500 nm wavelength.
The LDL in serum was precipitated using PVS. The serum TC and the Ch in the resulting supernatant were determined using the enzymatic methods described hereinabove, and the LDL-C was calculated by subtracting the Ch from the serum TC. The polyethylene glycol monoether (PEGME) was added in a suitable amount in order to facilitate the precipitation of LDL. […]

[2] = test system: high lipid mode white rats; experiment: Therapeutic blood lipid lowering in hyperlipoidemia mode white rats (Example 3); type: in vivo, Wistar male white rats
From the text: High lipid feed formula: cholesterol 3%, lard 10%, sodium cholate 0.5%, basal feed: 86.5% (formula: flour 17.14%, rice flour 8.57%, maize 17.14%, bran 21%, fish flour 1.71%, dairy salt 0.857%, vitamin 0.085%, bean material 17.14%).
72 Wistar white male rats of 170±10 g of body weight were divided into 6 groups randomly and numbered. Each group included 12 rats. The rats were fed with common standard feed under experimental conditions and observed for 7 days, and its blood was sampled from tail for testing serum total cholesterol (TC). […] From the 8th day, the group I was set as a blank group, and was fed with common standard feed. Other groups were fed with high lipid feed for 8 days in a row, and the blood was sampled from tail on the next day for testing TC. […] The rats then were divided into 5 groups randomly (see table 12) according to TC levels. Each group included 10 rats (10 rats who were unsuccessful blood lipid modes were discarded). The rats were ted with high lipid teed continuously. Group was a high lipid feed mode control group. Group III was a Simvastatin 10 mg/kg group. Group IV was a GB-O group. Group V was a GB-H group. Group VI was a GB-K group. The high lipid feed mode control group was fed with high lipid feed together with distilled water. Groups III, IV, V, and VI were fed with high lipid feed together with required simvastatin, GB-O, GB-H, and GB-K suspensions (formulated by grinding with 0.5% sodium carboxymethycellulose CMC-Na) respectively. The dosing amount was 0.046 mmol/kg, and the amount of high lipid feed was 20 g per day for each rat. The grouping and the dosing amount for each group can be found in table 13.
as §1, with “rats for” for “rats in”, “dosed basing,” for “dosed basing”, “hours, the” for “hours, its”, “coagulate,” for “coagulate, and”, “using a” for “using the”
All data were treated statistically, and are presented as means standard deviations (x±s). The significance of difference was judged by T test. The calculation of p value was obtained by comparing the high lipid mode group with the blank control group, and comparing other test drug groups with the high lipid mode group.
The reaction temperature was 37° C. The cholesterol ester in serum was first hydrolyzed into free cholesterol (FC) and fatty acid with cholesterol ester hydrolase (CEH.) Then, all FC in serum was oxidized into ch-4-en-3-one and H2O2) with cholesterol oxidase (COD). The resulting H2O2, was reacted with 4-aminoantipyrine (4-AAP) and 4-chlorophenol in the presence of peroxidase (POD) (Trinder reaction), to yield red quinine imine, which was colarimetrically tested at 500 nm wavelength.
The reaction temperature was 37° C. The triglyceride in serum was first hydrolyzed into glycerol and fatty acid with lipoprotein lipase (LPL). The resulting glycerol was reacted with ATP in the presence of glycerol kinase (GK), to produce glycerol-3-phosphate and ADP. The resulting glycerol-3-phosphate was oxidized into dihydroxyacetone phosphate and H2O2 with oxygen in the presence of glycerol phosphate oxidase (GPO). […]

[3] = group mean n=10, 15th day after administration
[4] = rats No. 1-10, 0.046 mmol/kg (Simvastatin 10 mg/kg), 15th day after administration

CCC(C)(C)C(=O)O[C@H]1C[C@@H](C)C=C2C=C[C@H](C)[C@H](CC[C@@H]3C[C@@H](O)CC(=O)O3)[C@H]21 [Simvastatin]
Total cholesterol value ([1]; Table 6, mean ± standard deviation, n=10): 13.88 ± 3.27 | Triglyceride value ([1]; Table 7, mean ± standard deviation, n=10): 1.22 ± 0.1841 mmol/L | Low density lipoprotein cholesterol ([1]; Table 8, mean ± standard deviation, n=10): 4.223 ± 0.9989 mmol/L | High density lipoprotein cholesterol ([1]; Table 9, mean ± standard deviation, n=10): 0.331 ± 0.0767 mmol/L | serum total cholesterol (TC) contents, Mean ([1]; group mean n=10, 0.046 mmol/kg (Simvastatin 10 mg/kg), 15th day after administration): 13.88 mmol/L | serum high density lipoprotein cholesterol (HDL) contents, Mean [1, 3]: 0.33 mmol/L | serum low density lipoprotein cholesterol (LDL) contents, Mean [1, 3]: 4.22 mmol/L | serum triglyceride (TG) contents, Mean [1, 3]: 1.22 mmol/L | serum high density lipoprotein cholesterol (HDL) contents, individual rats [1, 4]: 0.26 mmol/L and 0.29 mmol/L and 0.31 mmol/L (2×) and 0.47 mmol/L and 0.39 mmol/L and 0.24 mmol/L and 0.33 mmol/L and 0.43 mmol/L and 0.28 mmol/L | serum low density lipoprotein cholesterol (LDL) contents, individual rats [1, 4]: 5.81 mmol/L and 4.98 mmol/L and 5.32 mmol/L and 3.73 mmol/L and 5.14 mmol/L and 3.99 mmol/L and 3.33 mmol/L and 3.37 mmol/L and 3.63 mmol/L and 2.93 mmol/L | serum triglyceride (TG) contents, individual rats [1, 4]: 1.12 mmol/L and 1.53 mmol/L and 0.93 mmol/L and 1.36 mmol/L and 1.26 mmol/L and 1.00 mmol/L and 1.19 mmol/L and 1.23 mmol/L and 1.31 mmol/L and 1.28 mmol/L | serum total cholesterol (TC) contents, individual rats ([1]; rats No. 1-10, high lipid feed plus drug 14 days, 0.046 mmol/kg (Simvastatin 10 mg/kg), 15th day after administration): 19.21 mmol/L and 14.11 mmol/L and 12.51 mmol/L and 11.11 mmol/L and 9.19 mmol/L and 11.57 mmol/L and 10.31 mmol/L and 15.62 mmol/L and 13.60 mmol/L and 18.06 mmol/L | Total cholesterol value ([2]; Table 18, mean ± standard deviation, n=10): 9.59 ± 1.50 | Triglyceride value ([2]; Table 19, mean ± standard deviation, n=10): 2.62 ± 0.54 mmol/L | Low density lipoprotein cholesterol ([2]; Table 20, mean ± standard deviation, n=10): 2.90 ± 0.67 mmol/L | High density lipoprotein cholesterol ([2]; Table 21, mean ± standard deviation, n=10): 0.75 ± 0.20 mmol/L | serum high density lipoprotein cholesterol (HDL) contents, Mean [2, 3]: 0.75 mmol/L | serum low density lipoprotein cholesterol (LDL) contents, Mean [2, 3]: 2.90 mmol/L | serum total cholesterol (TC) contents, Mean [2, 3]: 9.59 mmol/L | serum triglyceride (TG) contents, Mean [2, 3]: 2.62 mmol/L | serum high density lipoprotein cholesterol (HDL) contents, individual rats [2, 4]: 1.11 mmol/L and 0.93 mmol/L and 0.58 mmol/L and 0.67 mmol/L and 0.37 mmol/L and 0.81 mmol/L and 0.77 mmol/L and 0.92 mmol/L and 0.66 mmol/L and 0.72 mmol/L | serum low density lipoprotein cholesterol (LDL) contents, individual rats [2, 4]: 2.51 mmol/L and 2.84 mmol/L and 2.67 mmol/L and 3.38 mmol/L and 1.97 mmol/L and 2.37 mmol/L and 3.71 mmol/L and 4.12 mmol/L and 3.12 mmol/L and 2.36 mmol/L | serum triglyceride (TG) contents, individual rats [2, 4]: 1.95 mmol/L and 3.67 mmol/L and 2.38 mmol/L and 2.08 mmol/L and 2.27 mmol/L and 3.27 mmol/L and 2.67 mmol/L and 2.36 mmol/L and 2.68 mmol/L and 2.96 mmol/L | serum total cholesterol (TC) contents, individual rats ([2]; rats No. 1-10, hyperlipoidemia mode, drug 14 days, 0.046 mmol/kg (Simvastatin 10 mg/kg), 15th day after administration): 7.61 mmol/L and 9.38 mmol/L and 8.81 mmol/L and 8.39 mmol/L and 12.67 mmol/L and 10.34 mmol/L and 9.37 mmol/L (2×) and 8.61 mmol/L and 11.34 mmol/L

— patent publication US20140194506A1, “Use of Potassium Piperonyl Pentadienoate for Lowering Blood Lipid” (INNER MONGOLIA UNIVERSITY, priority 2011, published 2014)
